Patent US9315498B2, “Arlethynyl derivatives” (Hoffmann-La Roche Inc., priority 2010, dated 2016)

Biological target: human mGlu5a receptor (Homo sapiens (Human), UniProt P41594)
Assay: Intracellular Ca2+ mobilization assay (mGlu5 PAM)
Format: cell-based
Conditions: for EC50: HEK-293 cells stably transfected with human mGlu5a, L-glutamate added at EC20 after pre-incubation with test compound, read-out: EC50 (nM) mGlu5PAM; for Emax: maximal response in % of the maximal stimulatory effect obtained with saturating concentrations of L-glutamate, read-out: Eff. (%)
Method in brief: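 HEK-293 cells stably expressing human mGlu5a at low level were loaded with Fluo-4AM and preincubated 10–30 min at 37 °C with 11-point half-log compound dilutions. L-glutamate was then added at its daily-determined EC20 (typically around 80 μM). Peak fluorescence minus basal, normalized to maximal glutamate effect, was fitted to give EC50, Hill slope and maximal response.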

Sequence of human mGlu5a receptor (P41594 other isoform, or with tags, fused parts or gaps): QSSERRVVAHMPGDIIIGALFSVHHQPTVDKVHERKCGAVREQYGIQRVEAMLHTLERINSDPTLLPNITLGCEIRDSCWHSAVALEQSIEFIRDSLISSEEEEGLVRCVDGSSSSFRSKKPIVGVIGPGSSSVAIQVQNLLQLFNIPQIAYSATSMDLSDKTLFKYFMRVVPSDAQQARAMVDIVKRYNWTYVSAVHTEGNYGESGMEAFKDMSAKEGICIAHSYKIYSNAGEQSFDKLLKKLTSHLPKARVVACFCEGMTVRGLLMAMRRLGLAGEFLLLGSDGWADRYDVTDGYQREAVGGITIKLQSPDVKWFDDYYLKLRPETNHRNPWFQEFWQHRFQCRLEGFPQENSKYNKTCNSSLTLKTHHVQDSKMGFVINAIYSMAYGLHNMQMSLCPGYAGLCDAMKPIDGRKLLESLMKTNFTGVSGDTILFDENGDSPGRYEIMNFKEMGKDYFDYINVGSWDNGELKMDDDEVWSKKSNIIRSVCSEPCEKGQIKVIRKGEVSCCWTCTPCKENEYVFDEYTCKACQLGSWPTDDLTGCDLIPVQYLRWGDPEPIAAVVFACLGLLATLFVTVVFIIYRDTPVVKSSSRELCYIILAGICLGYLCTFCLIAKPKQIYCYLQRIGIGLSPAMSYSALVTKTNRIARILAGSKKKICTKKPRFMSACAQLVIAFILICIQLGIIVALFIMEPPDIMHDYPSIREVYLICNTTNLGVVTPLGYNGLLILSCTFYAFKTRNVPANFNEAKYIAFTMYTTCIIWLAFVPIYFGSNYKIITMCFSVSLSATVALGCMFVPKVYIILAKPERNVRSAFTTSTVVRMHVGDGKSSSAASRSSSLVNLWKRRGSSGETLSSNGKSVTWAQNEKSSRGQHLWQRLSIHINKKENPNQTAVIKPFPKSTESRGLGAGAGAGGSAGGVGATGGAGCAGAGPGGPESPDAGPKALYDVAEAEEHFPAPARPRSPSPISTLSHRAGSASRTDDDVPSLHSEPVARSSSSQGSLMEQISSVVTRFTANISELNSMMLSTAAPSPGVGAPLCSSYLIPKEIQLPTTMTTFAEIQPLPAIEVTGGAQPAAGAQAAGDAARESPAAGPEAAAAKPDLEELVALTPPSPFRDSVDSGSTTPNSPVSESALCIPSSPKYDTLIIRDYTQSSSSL

| Compound | EC50 | Emax |
| --- | --- | --- |
| CN1C(=O)N(c2ccc(C#Cc3ccc(F)cc3)cn2)CC1(C)C [Example 57, 1-[5-(4-Fluoro-phenylethynyl)-pyridin-2-yl]-3,4,4-trimethyl-imidazolidin-2-one] | 35 nM | 78% |
| O=C1CC2(CCCC2)CN1c1ccc(C#Cc2ccccc2)cn1 [Example 59, 2-(5-Phenylethynyl-pyridin-2-yl)-2-aza-spiro[4.4]nonan-3-one] | 16 nM | 81% |
| CN1C(=O)N(c2ccc(C#Cc3ccccc3)cn2)CCC1(C)C [Example 67, 3,4,4-Trimethyl-1-(5-phenylethynyl-pyridin-2-yl)-tetrahydro-pyrimidin-2-one] | 15 nM | 81% |
| CN1C(=O)N(c2ccc(C#Cc3cc(F)ccc3F)cn2)CCC1(C)C [Example 68, 1-[5-(2,5-Difluoro-phenylethynyl)-pyridin-2-yl]-3,4,4-trimethyl-tetrahydro-pyrimidin-2-one] | 41 nM | 79% |
| CN1C(=O)N(c2ccc(C#Cc3ccc(F)cc3)cn2)CCC1(C)C [Example 69, 1-[5-(4-Fluoro-phenylethynyl)-pyridin-2-yl]-3,4,4-trimethyl-tetrahydro-pyrimidin-2-one] | 49 nM | 107% |
| CC1(C)CCN(c2ccc(C#Cc3cccnc3)cn2)C(=O)O1 [Example 73, 6,6-Dimethyl-3-(5-pyridin-3-ylethynyl-pyridin-2-yl)-[1,3]oxazinan-2-one] | 59 nM | 98% |
| CC1(C)CCN(c2ccc(C#Cc3cncc(F)c3)cn2)C(=O)O1 [Example 74, 3-[5-(5-Fluoro-pyridin-3-ylethynyl)-pyridin-2-yl]-6,6-dimethyl-[1,3]oxazinan-2-one] | 59 nM | 108% |
| CC1(C)CCN(c2ccc(C#Cc3cncc(Cl)c3)cn2)C(=O)O1 [Example 75, 3-[5-(5-Chloro-pyridin-3-ylethynyl)-pyridin-2-yl]-6,6-dimethyl-[1,3]oxazinan-2-one] | 27 nM | 87% |
| CC1(C)CCN(c2ccc(C#Cc3cccc(Cl)c3)cn2)C(=O)O1 [Example 77, 3-[5-(3-Chloro-phenylethynyl)-pyridin-2-yl]-6,6-dimethyl-[1,3]oxazinan-2-one] | 12 nM | 72% |
| Cc1cccc(C#Cc2ccc(N3CCC(C)(C)OC3=O)nc2)c1 [Example 78, 6,6-Dimethyl-3-(5-m-tolylethynyl-pyridin-2-yl)-[1,3]oxazinan-2-one] | 24 nM | 72% |
| CC1(C)CCN(c2ccc(C#Cc3ccc(F)c(F)c3)cn2)C(=O)O1 [Example 80, 3-[5-(3,4-Difluoro-phenylethynyl)-pyridin-2-yl]-6,6-dimethyl-[1,3]oxazinan-2-one] | 37 nM | 69% |
| O=C1CC2(COC2)CN1c1ccc(C#Cc2ccccc2)cn1 [Example 82, 6-(5-Phenylethynyl-pyridin-2-yl)-2-oxa-6-aza-spiro[3.4]octan-7-one] | 57 nM | 72% |
| CN1C(=O)N(c2ccc(C#Cc3ccccc3)cn2)C2CCCCC21 (stereo not drawn) [Example 84, (3 aSR,7aRS)-(3aRS,7RS)-1-Methyl-3-(5-phenylethynyl-pyridin-2-yl)-octahydro-benzoimidazol-2-one] | 11 nM | 64% |
| CN1C(=O)N(c2ccc(C#Cc3cccnc3)cn2)C2CCCCC21 (stereo not drawn) [Example 85, (3aSR,7aRS)-(3aRS,7RS)-1-Methyl-3-(5-pyridin-3-ylethynyl-pyridin-2-yl)-octahydro-benzoimidazol-2-one] | 27 nM | 49% |
| CN1C(=O)N(c2ccc(C#Cc3cncc(F)c3)cn2)C2CCCCC21 (stereo not drawn) [Example 86, (3aSR,7aRS)-(3aRS,7RS)-1-[5-(5-Fluoro-pyridin-3-ylethynyl)-pyridin-2-yl]-3-methyl-octahydro-benzoimidazol-2-one] | 32 nM | 52% |
| CC1(C)CCN(c2ccc(C#Cc3ccccc3)cn2)C(=O)C1 [Example 87, 4,4-Dimethyl-5′-phenylethynyl-3,4,5,6-tetrahydro-[1,2′]bipyridinyl-2-one] | 12 nM | 89% |
| CC1(C)CCN(c2ccc(C#Cc3cccc(F)c3)cn2)C(=O)C1 [Example 88, 5′-(3-Fluoro-phenylethynyl)-4,4-dimethyl-3,4,5,6-tetrahydro-[1,2′]bipyridinyl-2-one] | 19 nM | 110% |
| CC1(C)CCN(c2ccc(C#Cc3cccc(Cl)c3)cn2)C(=O)C1 [Example 89, 5′-(3-Chloro-phenylethynyl)-4,4-dimethyl-3,4,5,6-tetrahydro-[1,2′]bipyridinyl-2-one] | 25 nM | 78% |
| CC1(C)CCN(c2ccc(C#Cc3cncc(Cl)c3)cn2)C(=O)C1 [Example 90, 5′-(5-Chloro-pyridin-3-ylethynyl)-4,4-dimethyl-3,4,5,6-tetrahydro-[1,2′]bipyridinyl-2-one] | 66 nM | 90% |
| CC1(C)CCN(c2ccc(C#Cc3ccc(F)cc3)cn2)C(=O)C1 [Example 91, 5′-(4-Fluoro-phenylethynyl)-4,4-dimethyl-3,4,5,6-tetrahydro-[1,2′]bipyridinyl-2-one] | 67 nM | 89% |

| Compound | EC50 | Emax |
| --- | --- | --- |
| CC1(C)CCN(c2ccc(C#Cc3cc(F)ccc3F)cn2)C(=O)C1 [Example 92, 5′-(2,5-Difluoro-phenylethynyl)-4,4-dimethyl-3,4,5,6-tetrahydro-[1,2′]bipyridinyl-2-one] | 32 nM | 84% |
| CC1(C)CCCN(c2ccc(C#Cc3ccccc3)cn2)C(=O)O1 [Example 93, 7,7-Dimethyl-3-(5-phenylethynyl-pyridin-2-yl)-[1,3]oxazepan-2-one] | 36 nM | 104% |
| O=C1OC2COCCC2N1c1ccc(C#Cc2ccccc2)cn1 (stereo not drawn) [Example 94, (3aSR,7aRS)-(3aRS,7RS)-1-(5-Phenylethynyl-pyridin-2-yl)-hexahydro-pyrano[4,3-d]oxazol-2-one] | 60 nM | 84% |
| CN1C(=O)N(c2ccc(C#Cc3ccccc3)cn2)CC12CC2 [Example 96, 4-Methyl-6-(5-phenylethynyl-pyridin-2-yl)-4,6-diaza-spiro[2.4]heptan-5-one] | 35 nM | 98% |
| CC1(C)CN(c2ccc(C#Cc3ccccc3)cn2)C1=O [Example 97, 3,3-Dimethyl-1-(5-phenylethynyl-pyridin-2-yl)-azetidin-2-one] | 36 nM | 71% |
| CCN1C(=O)N(c2ccc(C#Cc3ccccc3)cn2)C2CCCCC21 (stereo not drawn) [Example 99, (3aSR,7aRS)-(3aRS,7RS)-1-Ethyl-3-(5-phenylethynyl-pyridin-2-yl)-octahydro-benzoimidazol-2-one] | 18 nM | 90% |
| CCN1C(=O)N(c2ccc(C#Cc3cccnc3)cn2)C2CCCCC21 (stereo not drawn) [Example 100, (3aSR,7aRS)-(3aRS,7RS)-1-Ethyl-3-(5-pyridin-3-ylethynyl-pyridin-2-yl)-octahydro-benzoimidazol-2-one] |  | 64% |
| CC(C)N1C(=O)N(c2ccc(C#Cc3ccccc3)cn2)C2CCCCC21 (stereo not drawn) [Example 101, (3aSR,7aRS)-(3aRS,7RS)-1-Isopropyl-3-(5-phenylethynyl-pyridin-2-yl)-octahydro-benzoimidazol-2-one] | 39 nM | 77% |
| Cc1cc(C#Cc2cccc(F)c2)cnc1N1CC(C)(C)N(C)C1=O [Example 108, 1-[5-(3-Fluoro-phenylethynyl)-3-methyl-pyridin-2-yl]-3,4,4-trimethyl-imidazolidin-2-one] | 102 nM | 115% |
| CN1C(=O)N(c2ncc(C#Cc3ccc(F)cc3)cc2F)CC1(C)C [Example 110] | 96 nM | 117% |
| CN1C(=O)N(c2ncc(C#Cc3cccc(F)c3)cc2F)CC1(C)C [Example 111] | 32 nM | 107% |
| CN1C(=O)N(c2ccc(C#Cc3ccc(F)cc3)cn2)CC12CC2 [Example 112, 6-[5-(4-Fluoro-phenylethynyl)-pyridin-2-yl]-4-methyl-4,6-diaza-spiro[2.4]heptan-5-one] | 80 nM | 89% |
| CN1C(=O)N(c2ccc(C#Cc3cccc(F)c3)cn2)CC12CC2 [Example 113, 6-[5-(3-Fluoro-phenylethynyl)-pyridin-2-yl]-4-methyl-4,6-diaza-spiro[2.4]heptan-5-one] | 51 nM | 75% |
| CC1(C)CC(=O)N(c2ncc(C#Cc3ccccc3)cn2)C1 [Example 115, 4,4-Dimethyl-1-(5-phenylethynyl-pyrimidin-2-yl)-pyrrolidin-2-one] | 13 nM | 109% |
| CC1(C)CCC(=O)N(c2ncc(C#Cc3ccccc3)cn2)C1 [Example 116, 5,5-Dimethyl-1-(5-phenylethynyl-pyrimidin-2-yl)-piperidin-2-one] | 41 nM | 101% |
| O=C1CC2(CCCC2)CN1c1ncc(C#Cc2ccccc2)cn1 [Example 117, 2-(5-Phenylethynyl-pyrimidin-2-yl)-2-aza-spiro[4.4]nonan-3-one] | 44 nM | 84% |
| CC1(C)CC(=O)N(c2ncc(C#Cc3cccc(F)c3)cn2)C1 [Example 118, 1-[5-(3-Fluoro-phenylethynyl)-pyrimidin-2-yl]-4,4-dimethyl-pyrrolidin-2-one] | 13 nM | 78% |
| CC1(C)CC(=O)N(c2ncc(C#Cc3cccc(Cl)c3)cn2)C1 [Example 119, 1-[5-(3-Chloro-phenylethynyl)-pyrimidin-2-yl]-4,4-dimethyl-pyrrolidin-2-one] | 11 nM | 26% |
| CC1(C)CC(=O)N(c2ncc(C#Cc3ccc(F)cc3)cn2)C1 [Example 120, 1-[5-(4-Fluoro-phenylethynyl)-pyrimidin-2-yl]-4,4-dimethyl-pyrrolidin-2-one] | 92 nM | 81% |
